Measured values published in publication PMC9687812, “Discovery of Trace Amine-Associated Receptor 1 (TAAR1) Agonist 2-(5-(4′-Chloro-[1,1′-biphenyl]-4-yl)-4H-1,2,4-triazol-3-yl)ethan-1-amine (LK00764) for the Treatment of Psychotic Disorders” (Biomolecules, 2022).

Experiments:
[1] = tested on: MK-801-treated Wistar rats; assay: MK-801-induced hyperactivity in rats (Actometer); assay type: in vivo, rat
Procedure: (§1) MK-801 (dizocilpine, (+)-5-methyl-10,11-dihydro-5H-dibenzo-[a,d]-cyclohepten-5,10-imine maleate; Sigma-Aldrich, St. Louis, MO, USA) was dissolved in saline. Compound 62 (LK00764) was dissolved in 10% Tween 80 saline solution. All solutions were made fresh shortly before injections. Drug doses were tested in a pseudo-random order derived from Latin square design with at least 72 h between consecutive tests. All drugs and vehicles were administered intraperitoneally (i.p.) in the volume of 1 mL/kg. Drug doses are reported as salts. Selection of the MK-801 dose (0.2 mg/kg) was based the previous experience with the compound [24]. All locomotor activity tests (duration—60 min) were performed 15 min after the administration of compounds.
We evaluated locomotor activity of rats in the Actometer apparatus. A detailed description of the apparatus has been presented before. […]
Glutamate NMDA receptor antagonist-induced hyperactivity in rodents is commonly used as a pharmacological animal model of schizophrenia in the screening of potential antipsychotics. […] Thus, we used MK-801 (0.2 mg/kg, i.p.) treatment to induce hyperactivity in rats and analyzed the effects of compound 62 (LK00764) at doses of 0.3, 1, 3, 5, and 10 mg/kg, i.p. on locomotor activity of MK-801-treated Wistar rats.

[2] = biological target: T1, TAAR1 (Homo sapiens, UniProt Q96RJ0); assay: BRET-based cellular cAMP (EPAC biosensor) assay of TAAR1 agonism in transfected HEK-293 cells
T1 sequence (Q96RJ0 1-339): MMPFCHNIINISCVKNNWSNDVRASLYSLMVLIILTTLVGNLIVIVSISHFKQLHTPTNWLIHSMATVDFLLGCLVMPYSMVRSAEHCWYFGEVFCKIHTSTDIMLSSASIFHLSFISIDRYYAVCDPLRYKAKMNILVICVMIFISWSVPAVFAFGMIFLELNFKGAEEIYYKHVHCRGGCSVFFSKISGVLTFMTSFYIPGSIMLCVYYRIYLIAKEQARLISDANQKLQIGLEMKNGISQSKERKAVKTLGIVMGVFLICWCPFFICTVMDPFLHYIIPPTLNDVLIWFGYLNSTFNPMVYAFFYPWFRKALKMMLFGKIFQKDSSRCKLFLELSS
Procedure: The Bioluminescence Resonance Energy Transfer approach (BRET) has been used for functional activity experiments. HEK-293 cells were transiently transfected with cDNA for TAARs and cAMP BRET biosensor (EPAC) and then plated in a 96-well plate, as described [23]. All compounds were tested at the initial concentration of 10 µM. […] A natural agonist of TAAR1 β-phenylethylamine (β-PEA) was used as a positive control.

[3] = tested on: Wistar male rats; assay: Stress-induced hyperthermia (SIH) test; assay type: in vivo, rat; conditions: n = 8
Procedure: SIH test is commonly used to evaluate the potential anti-anxiety effect of drugs. Thermometry was performed rectally in rats with a BIOSEB thermometer. Eight Wistar male rats were injected i.p. with vehicle or LK00764, dissolved in 10% tween 80 saline solution. Latin square design was used for the experiment. The first measurement was performed directly before the injection and the second measurement was performed 15 min later. The difference between the first and the second temperature was calculated.
Another behavioral paradigm known to be affected by TAAR1 agonists is the stress-induced hyperthermia test, which is believed to be a sensitive approach to evaluate the anxiolytic action of compounds [10, 42, 39a]. Thus, compound 62 (LK00764) was evaluated in this test at doses of 3 and 5 mg/kg, i.p. (Figure 7). At both doses, this compound was effective in suppressing stress-induced hyperthermia in rats (p < 0.05 and p < 0.001 for 3 and 5 mg/kg, respectively; Dunn’s test).

[4] = tested on: DAT-KO rats; assay: Spontaneous locomotor hyperactivity of dopamine transporter knockout (DAT-KO) rats; assay type: in vivo, rat
Procedure: as §1
(§2) We evaluated locomotor activity of rats in the Actometer apparatus. A detailed description of the apparatus has been presented before. Shortly, each box of the apparatus was equipped by photocell-based infrared sensors to assess horizontal and vertical activity. Wistar rats were tested in the apparatus following a one-week habituation period (baseline period). […]
Animals without DAT have a disrupted re-uptake of dopamine resulting in remarkably elevated extracellular dopamine levels and spontaneous locomotor hyperactivity. […] Thus, we next evaluated the effects of LK00764 (1–10 mg/kg, i.p.) on spontaneous locomotor hyperactivity of DAT-KO rats (n = 9).

[5] = tested on: intact Wistar rats; assay: Spontaneous locomotor activity of intact rats (Actometer); assay type: in vivo, rat; conditions: 0.3–10 mg/kg i.p., n = 9
Procedure: as §1
as §2, with “period). During this period, the animals were placed in locomotor activity boxes for 60 min per day, 6 days a week to habituate them to the environment.” for “period).”
Next, we analyzed the locomotor effects of compound 62 (LK00764, 0.3–10 mg/kg, i.p.) on the additional group of intact rats (n = 9).

## Cl.NCCc1nnc(-c2ccc(-c3ccc(Cl)cc3)cc2)[nH]1 [Compound 62, 2-(5-(4′-Chloro-(1,1′-biphenyl)-4-yl)-4H-1,2,4-triazol-3-yl)ethan-1-amine Hydrochloride]
[1]; 0.3, 1, 3, 5, 10 mg/kg i.p., MK-801 0.2 mg/kg i.p., Friedman test, horizontal p < 0.05, vertical p < 0.01, n = 7
  effect on MK-801-induced hyperactivity (horizontal and vertical activity): dose-dependently mitigated
[1]; doses of 5 and 10 mg/kg i.p., Dunnett's test p < 0.05
  effect on horizontal and vertical locomotor activity vs vehicle in MK-801-treated rats: significant
[2]
  EC50: 4 nM
  potency relative to Ulotaront (times higher): more than 30 times
[2]; HEK293, read-out: Emax: maximum observed activation of TAAR1 relative to that observed for 1 μM of β-PEA
  Emax: 101%
[3]; 3 mg/kg i.p., p < 0.05 Dunn's test
  suppression of stress-induced hyperthermia: effective
[3]; 5 mg/kg i.p., p < 0.001 Dunn's test
  suppression of stress-induced hyperthermia: effective
[4]; 1–10 mg/kg i.p., n = 9, Friedman p < 0.05
  horizontal and vertical activity of DAT-KO rats: significant dose-dependent decrease
[4]; only the highest tested dose, 10 mg/kg i.p., Dunnett's test
  locomotor hyperactivity of DAT-KO rats vs vehicle: significantly (p < 0.05) diminished
other
  melting point: 247 to 249 °C
[5]; Friedman p < 0.001
  vertical activity of intact rats: decreased
[5]; Friedman p = 0.60
  horizontal activity of intact rats: did not affect
